Active and inactive are the calls of the source. Cut-off read from the data, not from the text of the source: actives have a measured IC50 and inactives only a lower limit.
Each molecule was assayed against Envelope glycoprotein gp160 (Human immunodeficiency virus 1, UniProt Q6QLK5) (assay: cell-free HIV fusion peptide-binding blockers – biochemical, uHTS, fluorescence dequenching, […] (AID 1986)).
Sequence of Envelope glycoprotein gp160 (Q6QLK5 whole entry, the tested form may be a part): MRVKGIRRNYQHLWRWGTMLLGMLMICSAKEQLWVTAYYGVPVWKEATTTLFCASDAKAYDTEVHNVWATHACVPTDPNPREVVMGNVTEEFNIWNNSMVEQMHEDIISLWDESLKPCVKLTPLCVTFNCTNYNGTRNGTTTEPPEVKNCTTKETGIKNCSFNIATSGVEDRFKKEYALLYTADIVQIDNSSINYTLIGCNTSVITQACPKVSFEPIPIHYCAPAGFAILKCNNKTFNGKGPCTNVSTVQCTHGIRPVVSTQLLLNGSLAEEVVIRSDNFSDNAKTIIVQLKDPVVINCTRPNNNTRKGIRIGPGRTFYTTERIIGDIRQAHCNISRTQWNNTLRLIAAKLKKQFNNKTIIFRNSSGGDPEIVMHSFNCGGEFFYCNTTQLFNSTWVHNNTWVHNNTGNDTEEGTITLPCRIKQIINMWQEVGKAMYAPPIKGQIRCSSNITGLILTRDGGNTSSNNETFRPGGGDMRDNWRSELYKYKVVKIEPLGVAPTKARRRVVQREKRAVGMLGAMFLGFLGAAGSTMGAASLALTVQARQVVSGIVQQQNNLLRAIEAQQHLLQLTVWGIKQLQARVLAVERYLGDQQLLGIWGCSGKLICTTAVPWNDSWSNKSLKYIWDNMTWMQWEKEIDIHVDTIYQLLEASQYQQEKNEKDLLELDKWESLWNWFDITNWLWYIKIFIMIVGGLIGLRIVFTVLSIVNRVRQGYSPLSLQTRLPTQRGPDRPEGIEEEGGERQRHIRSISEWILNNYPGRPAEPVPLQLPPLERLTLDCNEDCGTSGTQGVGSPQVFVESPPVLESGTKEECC
For `CS(=O)(=O)C1=NSC2=NC(=O)/C(=C\c3ccc(OS(=O)(=O)c4ccccc4)cc3)C(=N)N21`, the IC50 was 18.2 µM (active).
With `COc1cc(/C=C2/SC(=S)N(CC(=O)O)C2=O)ccc1OCC(=O)Nc1ccc(C)c(C)c1` the IC50 was 17.9 µM (active).
For `O=C(O)COc1ccc(/C=C/C(=O)c2ccc(C3CCCCC3)cc2)cc1`, the IC50 was 17.7 µM (active).
For `COc1ccc(/N=C2\S/C(=C\c3ccc(OC(C)C(=O)O)c(OC)c3)C(=O)N2CCc2c[nH]c3ccccc23)cc1` (stereo not given), the IC50 was 18.9 µM (active).
For `O=C(O)CSc1ncnc2c1sc1nc(-c3ccccc3)c3c(c12)CCC3`, the IC50 was 28 µM (active).

Reference: ChEMBL document CHEMBL1201862, “PubChem BioAssay data set” (2004)
